Results taken from patent US8722867B2, “Gene therapy vectors and cytosine deaminases” (priority 2008, dated 2014).

Tested on: TU-2449 tumors
Assay: HPLC analysis of 5-FC and 5-FU in excised TU-2449 tumors
Assay type: in vivo, mice
Settings: Groups 2 and 3: PBS instead of vector, 5-FC 250 or 500 mg/kg IP
Protocol: The study consisted of 6 groups of female mice (see Table below). All groups underwent intracranial administration into the right striatum of 1E4 TU-2449 cells administered/mouse on Day 0. At Day 4, all groups received intracranial/intratumoral administration of AC3-YCD2 (V) vector at 2.4E6 TU/5 ul (Lot#T511019) or PBS buffer control.
AC3-yCD2 (V) (5 μL) was infused at 0.33 μL per minute (15 minutes, followed by a hold of 5 minutes) intracranially at the same coordinates as TU-2449 cells were injected.
From each brain, tumors were isolated and trimmed if large enough for multiple analyses (more than 0.05 g). Tumors sections for HPLC analysis were crushed in a 1.5 mL centrifuge tube using a plunger from a 1 mL syringe. Crushed samples were mixed with 150 uL RIPA buffer and vortexed vigorously for 10 minutes. Samples were spun at 4° C. at 20000 rcf for 10 minutes. Supernatants were removed and mixed thoroughly with 150 uL of 10% trichloroacetic acid and spun as above. […] Data was expressed in relative milli absorbance units (mAU) of peak area from the chromatograms.

For `Nc1nc(=O)[nH]cc1F` [5-FC, 5-fluorocytosine], the “5-FC and 5-FU HPLC signals in tumor” value was “detectable 5-FC signals but no signal for 5-FU”.
